# How the values were obtained:
# Assay type in all cases: in vivo, zebrafish
# cutaneous sensory axons = experiment: Axon branch number in caudal fin (acetylated tubulin staining); settings: for axon branch number: 96 hr; for axon branches in the caudal fin: 96 hr paclitaxel
# Procedure: The stock solution was divided into 20-30 μl aliquots and stored at −20 °C until use (maximal 6 months). Immediately prior to use, paclitaxel was diluted in Ringer's solution and added to dechorionated larval zebrafish. The larval fish were placed individually or in small groups into wells of a 12-well plate containing the treatment solutions. The control group was 0.05% DMSO. Plates were incubated at 28.5 °C and protected from light. Treatment lengths are indicated in the Drawings, Description of the Drawings, and Examples where appropriate. […] EMD534085, Eg5 inhibitor (MedChemExpress, Cat. No. HY-15000) was diluted in 100% DMSO to make a 10 mM stock solution and stored at −20 °C. […] The solutions were exchanged every 48 hr.
# Larval fish were transferred into […] glass vials and fixed in 4% paraformaldehyde (PFA)/1× Phosphate-buffered saline (PBS) for 1.5 hr at room temperature, with gentle rocking. Following a 5-minute incubation in 1×PBS+0.1% Tween-20 (PBST), zebrafish were permeabilized in 1×PBS+0.1% Triton X-100 for 10-30 min. Larval fish were transferred into 2 ml reaction tubes and incubated in blocking buffer (1×PBST+5% BSA) for 30 min at room temperature, with rocking. Larval fish were further incubated overnight in antibody solution (Millipore Sigma, Cat. No. AB3201, 1:300 rabbit anti-GluTub; Sigma, Cat No. T6793, 1:500 mouse anti-acetylated tubulin) in blocking buffer at 4 °C, on a rotator. The next morning, larval fish were transferred into 6-well plates and washed 4×15 min in 1×PBST at room temperature, with rocking. This was followed by incubation in secondary antibody (goat anti-rabbit Cy5, Abcam, Cat. No. ab97077; goat anti-mouse Cy3, Abcam, Cat. No. ab97035) and 1:10,000 Hoechst 33342 (ThermoFisher Scientific, Cat. No. 62249, 20 mM solution) in blocking buffer for 1 hr at room temperature, with rocking. Fish were covered to avoid bleaching. Fish were washed for 4×15 min in 1×PBST at room temperature, with rocking, and immediately mounted for imaging on glass bottom petri dishes (Spectrum Laboratory Products, Cat. No. 750-10403-UE) using 1% agarose (Thermo Fisher Scientific, Cat. No. 16520050). A 1:200 dilution was used for mouse alpha-tubulin antibody (Proteintech, Cat. No. 66031-1) and a 1:1,000 dilution of donkey anti-mouse IgG Alexa488 (ThermoFisher Scientific, Cat. No. A-21202) for secondary detection. For Nox1 immunostaining, a 1:300 dilution of primary antibody (Anti-NOX1 Rabbit Polyclonal Antibody, Avantar, Cat. No. 102164-796) and a 1:1,000 dilution of secondary goat anti-rabbit Cy2 (Abcam, Cat. No. ab6940) antibody was used. Eg5 antibody (Abcam, Cat. No. 61199) was used at a 1:100 and secondary goat anti-rabbit Cy2 (Abcam, Cat. No. ab6940) at 1:1,000 dilution.
# Axon branch number quantifications were performed by drawing a 50 μm line across the dorsal, medial, and ventral caudal fin edge region at a distance of 100 μm parallel to the fin edge (which was determined to be the most reliable region to quantify distal branch numbers). Axons traversing this line were counted and averaged per treatment group. Axonal fluorescence measurements were taken using the Imaris Spots function by manually placing spots along the axon and using the fluorescence intensity profile measurements MatLab tool.
# Stretching was performed after 96 hr treatment, followed by 2 hr post-stretch fixation, and staining for detection of acetylated tubulin in axons.
# To further validate Eg5 as the pharmacological target of EMD534085 in axon regeneration, zebrafish injected with kif11 CRISPR oligo were also analyzed.
# [1] = system: HyPer oxidation in keratinocytes; experiment: Compartmentalized HyPer oxidation (nucleus, plasma membrane) in keratinocytes; settings: paclitaxel, alone or with EMD534085; for nuclear HyPer oxidation: nucleus
# Procedure: HyPer fluorescence was measured in the oxidized (505 nm) and unoxidized (420 nm) channels by using the region of interest (ROI) function in ZEN Black (Zeiss) whereby ROIs were selected inside highly magnified mitochondria (HyPer-mito), cytoplasm (HyPer-cyto) or the plasma membrane (HyPer-CAAX). The data was exported, and ratios determined in Excel. H2O2 measurements in zebrafish transiently injected with tp63:Hyper were manually performed by placing spot objects in Imaris 9.5.1 onto individual cells such that the spots extended to the lateral edges. Fluorescence intensities were measured inside the spots and 505 nm/420 nm ratios were subsequently calculated.
# These findings supported a role for Eg5 in nuclear X-ROS production as a result of microtubule fasciculation and increased mechanical tension.
# [2] = system: Tau-Bfp2 microtubules in keratinocytes; experiment: Tau-Bfp2-stabilized microtubules in keratinocytes; settings: 96 hr
# Procedure: Fish were anesthetized in 2-phenoxyethanol (1:1000) in Ringer's solution prior to imaging and mounted in 1.2% agarose. EB3-GFP and Tau-Bfp2 were imaged with a scan speed kept at the maximum level in single slice mode with […] for a total of 60s to capture microtubule dynamics. h2a:H2A-GFP time-lapse recordings were produced (Zeiss LSM880 AiryScan confocal microscope) with 1 μm sections recorded every 10 min for 12 hr using 800×800 pixels. All other live fish were imaged using 1024×1024 pixels.
# Microtubule analyses was performed in Imaris 9.5.1 (Bitplane) by measuring the straightness of filaments (microtubules) using the “Filaments—Dendrite Straightness” tool, which was defined as the ratio between […] between two branch points (h). The value was always smaller than 1 since the Dendrite Straightness of 1 defines straight objects.
# EB3-GFP tracking was done in Fiji using the MTrackJ plugin to trace microtubules over time and create Kymographs, measure the velocity, track length, and comet duration. Tracking was also performed using the Spots and Surface tools in Imaris. Settings were initially automatically detected to fit the fluorescence and subsequently modified manually for improved fit. Settings were maintained between treatment groups.
# Tau therefore seems to prevent paclitaxel-induced dfMT formation.
# Thus EB3-GFP plus-ends appeared in part to grow along pre-existing stable microtubules, which could be a means to maintain cellular organization.
# keratinocyte nuclei = experiment: Nuclear volume and sphericity of keratinocytes; settings: 96 hr, keratinocytes with dfMTs
# Procedure: Nuclear sphericity and volume were calculated in Imaris following 3D rendering of round keratinocyte nuclei using the Surface tool. First, background subtractions were performed, followed by automatic threshold detection. The threshold was adjusted if necessary to fit the nucleus. Thresholds were kept constant for comparisons.
# It was expected that dfMTs should be in close proximity to the nucleus in order to activate Nox1 by mechanotransduction. To further confirm this expectation, high resolution imaging and 3D rendering of keratinocyte dfMTs and nuclei were used.
Compound,axon branch number (cutaneous sensory axons; EMD534085 alone),nuclear HyPer oxidation [1],plasma membrane HyPer oxidation [1],"axon branch number (cutaneous sensory axons; 100 nM paclitaxel, alone or with 48 hr EMD534085)","axon branch number (cutaneous sensory axons; 22 μM paclitaxel, alone or with EMD534085)",axon branches in the caudal fin (cutaneous sensory axons; cyba−/− fish),axon degeneration after stretching (cutaneous sensory axons; paclitaxel-treated and stretched cyba−/− mutants),axon branches in the caudal fin (cutaneous sensory axons; wildtype),EB3-GFP puncta co-localized with Tau-Bfp2 ([2]; Tau-Bfp2 + 22 μM paclitaxel),velocity of EB3-GFP plus-ends ([2]; Tau-Bfp2 + paclitaxel),"microtubule straightness (1=straight, 0=curved) ([2]; strong Tau-Bfp2 + paclitaxel)",nuclear volume (keratinocyte nuclei; 22 μM paclitaxel),nuclear sphericity (1=spherical vs. 0=nonspherical) (keratinocyte nuclei; paclitaxel)
CN(C)CCNC(=O)NC[C@H]1CC[C@@H]2[C@H](O1)c1cc(C(F)(F)F)ccc1N[C@H]2c1ccccc1 [EMD534085],10.25±0.47 branches/50 μm,Nuclear HyPer oxidation was reduced upon co-administration of EMD534085,without effects on plasma membrane oxidation,,,,,,,,,,
CC(=O)O[C@H]1C(=O)[C@@]2(C)[C@H]([C@H](OC(=O)c3ccccc3)[C@]3(O)C[C@H](OC(=O)[C@H](O)[C@@H](NC(=O)c4ccccc4)c4ccccc4)C(C)=C1C3(C)C)[C@]1(OC(C)=O)CO[C@@H]1C[C@@H]2O [paclitaxel],,increased oxidation within the nucleus,not at the plasma membrane,9.86±0.43 branches/50 μm,7.54±0.56 branches/50 μm,no change was found within the cyba−/− group,rescued in paclitaxel-treated and stretched cyba−/− mutants,a decrease in axon branches,91.26±1.64%,0.184±0.003 μm/s,0.98±0.002,582±83.18 μm3,0.23±0.01

# Reference: patent publication US20260345584A1, “METHODS AND PHARMACEUTICAL COMPOSITIONS FOR TREATING CHEMOTHERAPY-INDUCED PERIPHERAL NEUROPATHY WITH EG5 INHIBITORS” (UNIVERSITY OF MIAMI, priority 2023, published 2026)
